Literature values as cited in PubChem BioAssay AID1259409 (Chemical Carcinogenesis Research Information System (CCRIS), 2018).

Tested on: rodent chemically induced tumor inhibition, incidence and multiplicity
Test: CCRIS tumor inhibitor studies
Details: Promoter: NONE USED
[1] = Carcinogen: BENZO[A]PYRENE, 50-32-8, Dose [Inhibitor]: 0, 4.7 MICROMOLAR/D IN 0.1 ML PEANUT OIL BEGINNING 2 WK PRIOR TO CARCINOGEN TREATMENT AND CONTINUING TO 2 WK POST CARCIN, Route [Inhibitor]: GAVAGE, Species: MOUSE, Strain/Sex: SWISS/FEMALE, Target Tissue: Type of Lesion: FORESTOMACH: TUMOR, Dose [Carcinogen]: 1 MG 2/WK IN 0.1 ML PEANUT OIL FOR 4 WK

SMILES	tumour outcome (control, treated, inhibition, significance) (Carcinogen: 4-NITROQUINOLINE-1-OXIDE, 56-57-5, Dose [Inhibitor]: 0, 100 PPM IN DIET FOR 10 WK BEGINNING PRIOR TO CARCINOGEN TREATMENT (STUDY DURATION: 32 WK), Route [Inhibitor]: ORAL, Species: RAT, Strain/Sex: F344/MALE, Target Tissue: Type of Lesion: TONGUE: PAPILLOMA, Dose [Carcinogen]: 20 PPM IN DRINKING WATER FOR 8 WK)	tumour outcome (control, treated, inhibition, significance) (Carcinogen: 4-NITROQUINOLINE-1-OXIDE, 56-57-5, Dose [Inhibitor]: 0, 100 PPM IN DIET FOR 10 WK BEGINNING PRIOR TO CARCINOGEN TREATMENT (STUDY DURATION: 32 WK), Route [Inhibitor]: ORAL, Species: RAT, Strain/Sex: F344/MALE, Target Tissue: Type of Lesion: TONGUE: SQUAMOUS CELL CARCINOMA, Dose [Carcinogen]: 20 PPM IN DRINKING WATER FOR 8 WK)	tumour outcome (control, treated, inhibition, significance) (Carcinogen: 4-NITROQUINOLINE-1-OXIDE, 56-57-5, Dose [Inhibitor]: 0, 100 PPM IN DIET FOR 22 WK BEGINNING 1 WK POST CARCINOGEN TREATMENT (STUDY DURATION: 32 WK), Route [Inhibitor]: ORAL, Species: RAT, Strain/Sex: F344/MALE, Target Tissue: Type of Lesion: TONGUE: PAPILLOMA, Dose [Carcinogen]: 20 PPM IN DRINKING WATER FOR 8 WK)	tumour outcome (control, treated, inhibition, significance) (Carcinogen: 4-NITROQUINOLINE-1-OXIDE, 56-57-5, Dose [Inhibitor]: 0, 100 PPM IN DIET FOR 22 WK BEGINNING 1 WK POST CARCINOGEN TREATMENT (STUDY DURATION: 32 WK), Route [Inhibitor]: ORAL, Species: RAT, Strain/Sex: F344/MALE, Target Tissue: Type of Lesion: TONGUE: SQUAMOUS CELL CARCINOMA, Dose [Carcinogen]: 20 PPM IN DRINKING WATER FOR 8 WK)	tumour outcome (control, treated, inhibition, significance) (Carcinogen: 7,12-DIMETHYLBENZ[A]ANTHRACENE, 57-97-6, Dose [Inhibitor]: 0, 1130 MG/KG OF DIET FROM DAY 34 TO 54 OF AGE (STUDY DURATION: 200 D), Route [Inhibitor]: ORAL, Species: RAT, Strain/Sex: SPRAGUE-DAWLEY/FEMALE, Target Tissue: Type of Lesion: MAMMARY GLAND: ADENOCARCINOMA, Dose [Carcinogen]: 15 MG/RAT ONCE AT 55 D OF AGE)	tumour outcome (control, treated, inhibition, significance) (Carcinogen: 7,12-DIMETHYLBENZ[A]ANTHRACENE, 57-97-6, Dose [Inhibitor]: 0, 1130 MG/KG OF DIET FROM DAY 34 TO 54 OF AGE (STUDY DURATION: 200 D), Route [Inhibitor]: ORAL, Species: RAT, Strain/Sex: SPRAGUE-DAWLEY/FEMALE, Target Tissue: Type of Lesion: MAMMARY GLAND: BENIGN TUMORS, Dose [Carcinogen]: 15 MG/RAT ONCE AT 55 D OF AGE)	tumour outcome (control, treated, inhibition, significance) (Carcinogen: 7,12-DIMETHYLBENZ[A]ANTHRACENE, 57-97-6, Dose [Inhibitor]: 0, 3390 MG/KG OF DIET FROM DAY 34 TO 54 OF AGE (STUDY DURATION: 200 D), Route [Inhibitor]: ORAL, Species: RAT, Strain/Sex: SPRAGUE-DAWLEY/FEMALE, Target Tissue: Type of Lesion: MAMMARY GLAND: ADENOCARCINOMA, Dose [Carcinogen]: 15 MG/RAT ONCE AT 55 D OF AGE)	tumour outcome (control, treated, inhibition, significance) (Carcinogen: 7,12-DIMETHYLBENZ[A]ANTHRACENE, 57-97-6, Dose [Inhibitor]: 0, 3390 MG/KG OF DIET FROM DAY 34 TO 54 OF AGE (STUDY DURATION: 200 D), Route [Inhibitor]: ORAL, Species: RAT, Strain/Sex: SPRAGUE-DAWLEY/FEMALE, Target Tissue: Type of Lesion: MAMMARY GLAND: BENIGN TUMORS, Dose [Carcinogen]: 15 MG/RAT ONCE AT 55 D OF AGE)	tumour outcome (control, treated, inhibition, significance) (Carcinogen: 7,12-DIMETHYLBENZ[A]ANTHRACENE, 57-97-6, Dose [Inhibitor]: 140 UG (1.5 MG/KG BW) IN 0.4 ML MINERAL OIL 3/WK FOR 28 WK (STUDY DURATION: 28 WK), Route [Inhibitor]: ORAL, Species: HAMSTER, Strain/Sex: SYRIAN/MALE, Target Tissue: Type of Lesion: SKIN: CARCINOMA, Dose [Carcinogen]: 0.1% IN HEAVY MINERAL OIL APPLIED TO BUCCAL POUCH 3/WK FOR 28 WK)	tumour outcome (control, treated, inhibition, significance) (Carcinogen: 7,12-DIMETHYLBENZ[A]ANTHRACENE, 57-97-6, Dose [Inhibitor]: 250 MG/KG IN DIET FOR 6 WK PRIOR TO CARCINOGEN DOSE AND CONTINUING FOR 21-22 WK POST CARCINOGEN DOSE (STUDY DURATION: 28, Route [Inhibitor]: ORAL, Species: RAT, Strain/Sex: SPRAGUE-DAWLEY/MALE, Target Tissue: Type of Lesion: SALIVARY GLAND: TUMOR, Dose [Carcinogen]: 1 MG IN 20 µL OLIVE OIL INJECTED INTO SUBMANDIBULAR GLAND ONCE)	tumour outcome (control, treated, inhibition, significance) [1]	tumour outcome (control, treated, inhibition, significance) (Carcinogen: N-BUTYL-N-(4-HYDROXYBUTYL)NITROSAMINE, 3817-11-6, Dose [Inhibitor]: 0, 0.1% IN DIET BEGINNING 5 WK PRIOR TO CARCINOGEN TREATMENT AND CONTINUING FOR DURATION OF STUDY (STUDY DURATION: 7 MO), Route [Inhibitor]: ORAL, Species: MOUSE, Strain/Sex: B6D2F1/MALE, Target Tissue: Type of Lesion: BLADDER: CARCINOMA IN SITU, Dose [Carcinogen]: 5 MG IN SALINE SOLUTION 2/WK FOR 9 WK)	tumour outcome (control, treated, inhibition, significance) (Carcinogen: N-BUTYL-N-(4-HYDROXYBUTYL)NITROSAMINE, 3817-11-6, Dose [Inhibitor]: 0, 0.1% IN DIET BEGINNING 5 WK PRIOR TO CARCINOGEN TREATMENT AND CONTINUING FOR DURATION OF STUDY (STUDY DURATION: 7 MO), Route [Inhibitor]: ORAL, Species: MOUSE, Strain/Sex: B6D2F1/MALE, Target Tissue: Type of Lesion: BLADDER: TRANSITIONAL CELL CARCINOMA, Dose [Carcinogen]: 5 MG IN SALINE SOLUTION 2/WK FOR 9 WK)	tumour outcome (control, treated, inhibition, significance) (Carcinogen: N-BUTYL-N-(4-HYDROXYBUTYL)NITROSAMINE, 3817-11-6, Dose [Inhibitor]: 0, 0.1% IN DIET BEGINNING 5 WK PRIOR TO CARCINOGEN TREATMENT AND CONTINUING FOR DURATION OF STUDY (STUDY DURATION: 7 MO), Route [Inhibitor]: ORAL, Species: MOUSE, Strain/Sex: B6D2F1/MALE, Target Tissue: Type of Lesion: BLADDER: TUMOR, Dose [Carcinogen]: 5 MG IN SALINE SOLUTION 2/WK FOR 9 WK)	tumour outcome (control, treated, inhibition, significance) (Carcinogen: N-BUTYL-N-(4-HYDROXYBUTYL)NITROSAMINE, 3817-11-6, Dose [Inhibitor]: 0, 50 PPM IN DRINKING WATER FOR 2O WK BEGINNING 1 WK POST CARCINOGEN TREATMENT (STUDY DURATION: 41 WK), Route [Inhibitor]: ORAL, Species: MOUSE, Strain/Sex: ICR/MALE, Target Tissue: Type of Lesion: URINARY BLADDER: CARCINOMA, Dose [Carcinogen]: 250 PPM IN DRINKING WATER FOR 20 WK)	tumour outcome (control, treated, inhibition, significance) (Carcinogen: N-BUTYL-N-(4-HYDROXYBUTYL)NITROSAMINE, 3817-11-6, Dose [Inhibitor]: 0, 50 PPM IN DRINKING WATER FOR 20 WK BEGINNING 1 WK POST CARCINOGEN TREATMENT (STUDY DURATION: 41 WK), Route [Inhibitor]: ORAL, Species: MOUSE, Strain/Sex: ICR/MALE, Target Tissue: Type of Lesion: URINARY BLADDER: PAPILLOMA, Dose [Carcinogen]: 250 PPM IN DRINKING WATER FOR 20 WK)	tumour outcome (control, treated, inhibition, significance) (Carcinogen: N-METHYL-N-NITROSOUREA, 684-93-5, Dose [Inhibitor]: 0, 1130 MG/KG OF DIET BEGINNING 2 D POST CARCINOGEN DOSE AND CONTINUING FOR DURATION OF STUDY (STUDY DURATION: 90 D), Route [Inhibitor]: ORAL, Species: RAT, Strain/Sex: SPRAGUE-DAWLEY/FEMALE, Target Tissue: Type of Lesion: MAMMARY GLAND: ADENOCARCINOMA, Dose [Carcinogen]: 45 MG/KG BW ONCE AT 50 D OF AGE)	tumour outcome (control, treated, inhibition, significance) (Carcinogen: N-METHYL-N-NITROSOUREA, 684-93-5, Dose [Inhibitor]: 0, 3390 MG/KG OF DIET BEGINNING 2 D POST CARCINOGEN DOSE AND CONTINUING FOR DURATION OF STUDY (STUDY DURATION: 90 D), Route [Inhibitor]: ORAL, Species: RAT, Strain/Sex: SPRAGUE-DAWLEY/FEMALE, Target Tissue: Type of Lesion: MAMMARY GLAND: ADENOCARCINOMA, Dose [Carcinogen]: 45 MG/KG BW ONCE AT 50 D OF AGE)
CC1=C(/C=C/C(C)=C/C=C/C(C)=C/C=C/C=C(C)/C=C/C=C(C)/C=C/C2=C(C)C(=O)CCC2(C)C)C(C)(C)CCC1=O	4/24 (17%), 0/17 (0%), 100%, p<0.05	13/24 (54%), 0/17 (0%), 100%, p<0.05	4/24 (17%), 1/19 (5%), 71%, p<0.05	13/24 (54%), 1/19 (5%), 91%, p<0.05	93%, 80%, 14%, not significant	28%, 30%, -7%, not calculated	93%, 67%, 28%, p<0.05	28%, 40%, -43%, not calculated	20/20 (100%), 2/20 (10%), 90%, not calculated	20/28 (71%), 21/30 (70%), 1%, not significant	20/20 (100%), 4/20 (20%), 80%, p<0.001	7/24 (29%), 5/24 (21%), 28%, not calculated	8/24 (33%), 10/24 (42%), -27%, not calculated	15/24 (63%), 15/24 (63%), 0%, not significant	15/36 (42%), 10/31 (33%), 21%, not significant	2/36 (6%), 3/31 (10%), -67%, not significant	100%, 100%, 0%, not significant	100%, 90%, 10%, not calculated
COC(=O)/C(C)=C/C=C/C(C)=C\C=C\C=C(C)\C=C\C=C(C)\C=C\C1=C(C)CCCC1(C)C											20/20 (100%), 4/20 (20%), 80%, p<0.001							
